Reference: paper PMC5884652, “New antimicrobial peptide kills drug-resistant pathogens without detectable resistance” (Oncotarget, 2018)
Ends that are not written are not given here.

Legend:
S. aureus 1870 = assay: microbe, parasite or virus in culture; type: cell-based, Staphylococcus aureus; settings: pH 7.4 (II); 10 mM sodium phosphate buffer, 10% LB; 37° C, 24 h; mean of 3 experiments
Description: (§1) The method for peptide synthesis has been described in detail previously. E. coli ATCC 25922 (LB media), P. aeruginosa ATCC 15692 (NB+0.5% NaCl media), Listeria monocytogenes ATCC 3710 (LB media), Staphylococcus epidermidis ATCC 12228 (LB media), and S. aureus ATCC 29213 (TSB media) were obtained from the American Type Culture Collection (Manassas, VA, USA). Bacillus subtilis KCTC 1998 (LB media), Salmonella typhimurium KCTC 1926 (NB media), and Proteus vulgaris KCTC 2433 (NB media) were obtained from the Korean Collection for Type Cultures (Jeollabuk-do, Korea). E. coli CCARM 1238 was received from the Culture Collection of Antibiotic Resistant Microbes at Seoul Women’s University, Korea. Drug-resistant P. aeruginosa 3543, 3904, 3547, and 4007 and S. aureus 3126, 0027, 5157, 1635, 4761, 5159, 3359, 2122, 1630, 1870, 3511, 5156, and 3518 were resistant strains isolated from patients with otitis media in a Chonnam National University’s hospital.
(§2) The antibacterial activities of AMPs (melittin, clavaspirin, and its analogs) and conventional antibiotic drugs (erythromycin, gentamicin, ampicillin, and piperacidin) were determined using microdilution assays. Bacterial cells were cultured at 37° C in appropriate culture media at pH 5.5 or pH 7.4 until collection during the mid-log phase and suspended in 10 mM sodium phosphate buffer (pH 5.5 or pH 7.4) supplemented with 10% culture medium. Thereafter, 2× serial dilutions of each peptide (0.25–128 μM) or antibiotic (0.25–256 μM) were added to sterile 96-well plates, and aliquots of cell suspension (5 × 10^5 colony forming units (cfu)/mL) were seeded into each well. The samples were then incubated at 37° C for 24 h. At the end of the incubation, the minimum inhibitory concentrations (MICs) of the peptides were determined using a VERSA Max microplate reader (Molecular Devices Co., Sunnyvale, CA, USA) at a wavelength of 600 nm. […] MIC values were calculated as the mean of 3 independent experiments conducted in triplicate.

S. aureus 3126 = assay: microbe, parasite or virus in culture; type: cell-based, Staphylococcus aureus; settings: pH 7.4 (II); 10 mM sodium phosphate buffer, 10% LB; 37° C, 24 h; mean of 3 experiments
Description: as §1, §2

S. aureus 5159 = assay: microbe, parasite or virus in culture; type: cell-based, Staphylococcus aureus; settings: pH 7.4 (II); 10 mM sodium phosphate buffer, 10% LB; 37° C, 24 h; mean of 3 experiments
Description: as §1, §2

S. aureus 5156 = assay: microbe, parasite or virus in culture; type: cell-based, Staphylococcus aureus; settings: pH 7.4 (II); 10 mM sodium phosphate buffer, 10% LB; 37° C, 24 h; mean of 3 experiments
Description: as §1, §2

S. aureus 5157 = assay: microbe, parasite or virus in culture; type: cell-based, Staphylococcus aureus; settings: pH 7.4 (II); 10 mM sodium phosphate buffer, 10% LB; 37° C, 24 h; mean of 3 experiments
Description: as §1, §2

S. aureus 1630 = assay: microbe, parasite or virus in culture; type: cell-based, Staphylococcus aureus; settings: pH 7.4 (II); 10 mM sodium phosphate buffer, 10% LB; 37° C, 24 h; mean of 3 experiments
Description: as §1, §2

S. aureus 0027 = assay: microbe, parasite or virus in culture; type: cell-based, Staphylococcus aureus; settings: pH 7.4 (II); 10 mM sodium phosphate buffer, 10% LB; 37° C, 24 h; mean of 3 experiments
Description: as §1, §2

S. aureus 2122 = assay: microbe, parasite or virus in culture; type: cell-based, Staphylococcus aureus; settings: pH 7.4 (II); 10 mM sodium phosphate buffer, 10% LB; 37° C, 24 h; mean of 3 experiments
Description: as §1, §2

S. aureus 3359 = assay: microbe, parasite or virus in culture; type: cell-based, Staphylococcus aureus; settings: pH 7.4 (II); 10 mM sodium phosphate buffer, 10% LB; 37° C, 24 h; mean of 3 experiments
Description: as §1, §2

S. aureus 3518 = assay: microbe, parasite or virus in culture; type: cell-based, Staphylococcus aureus; settings: pH 7.4 (II); 10 mM sodium phosphate buffer, 10% LB; 37° C, 24 h; mean of 3 experiments
Description: as §1, §2

S. aureus 1635 = assay: microbe, parasite or virus in culture; type: cell-based, Staphylococcus aureus; settings: pH 7.4 (II); 10 mM sodium phosphate buffer, 10% LB; 37° C, 24 h; mean of 3 experiments
Description: as §1, §2

S. aureus 4761 = assay: microbe, parasite or virus in culture; type: cell-based, Staphylococcus aureus; settings: pH 7.4 (II); 10 mM sodium phosphate buffer, 10% LB; 37° C, 24 h; mean of 3 experiments
Description: as §1, §2

S. aureus 3511 = assay: microbe, parasite or virus in culture; type: cell-based, Staphylococcus aureus; settings: pH 7.4 (II); 10 mM sodium phosphate buffer, 10% LB; 37° C, 24 h; mean of 3 experiments
Description: as §1, §2

[1] = tested on: S. aureus CCARM 0027-infected hairless mice; assay: Dermal infection and inflammation model; type: in vivo, mouse
Procedure: Male hairless mouse (aged 6 weeks, 5 mouse/group, total 7 groups) were injected intraepidermal with S. aureus CCARM 0027 (1 × 10^8 cfu/ml). The CSP-4 peptide (200, 100, 50, 25 μg/ml) was injected intraeptidermal into mice at 1 h after the S. aureus CCARM 0027 injection, samples of inflamed skin was collected after 7 days and 4-μm-thick sections were prepared as described in the preceding section. Each sample was then incubated for 30 min at 24° C with 5% bovine serum albumin, mouse anti-Toll-like receptor-2 (TLR-2) (AbFrontier, AB24192), mouse monoclonal anti-TNF-α (AbFrontier, AB1793), and mouse polyclonal anti-IL-1β (AbFrontier, AB1413). The samples were then washed with Tris-buffered saline containing Tween 20 buffer and incubated with HRP LF-SA5001-conjugated goat anti-mouse IgG, and stained with hematoxylin and eosin. The stained sections were examined under a fluorescence microscope.
Western blot analysis was performed as using changes in protein expression. Briefly, proteins extracted from the hairless mouse skin were separated for 3 h using 15% SDS-polyacrylamide gel electrophoresis and transferred to polyvinylidene fluoride membranes (Bio-Rad, Hercules, CA, USA) for 1 h at 90 V. The membranes were then incubated overnight at 4° C in 5% skim milk containing anti-GAPDH (LF-PA0018; Santa Cruz Biotechnology, Santa Cruz, CA, USA), mouse anti-TLR2 (AbFrontier, AB24192), mouse anti-NF-κB, (Santa Cruz Biotechnology, SC-71675), mouse anti-TNF-α (AbFrontier, AB1793), mouse anti-IL-1β (AbFrontier, AB1413), and mouse anti-cathelicidin (AbFrontier, AB93357). The membranes were then washed in Tris-buffered saline containing Tween 20 and incubated with the horseradish peroxidase (HRP)-conjugated secondary antibodies LF-SA5002 goat anti-rabbit IgG and LF-SA5001 goat anti-mouse IgG. The blots were developed using a Western Blot Detection kit (AbFrontier, LF-QC0103).
For scanning electron microscopy (SEM), S. aureus cells were cultured in LB medium (pH 5.5 or pH 7.4), washed 3 times with 10 mM sodium phosphate buffer, and stirred at 4000 rpm. CSP-4 was added to the cells and incubated at 25° C. After incubation, the cells were fixed in 4% glutaraldehyde for 20 min and dehydrated in 50% and then 100% ethanol (10 min each step) at 37° C. In addition, 7 days after inducing inflammation in hairless mouse skin tissue by infection with drug-resistant S. aureus CCARM 0027 strain or E. coli bacteria, samples of skin tissue were isolated, washed in PBS, fixed in 4% paraformaldehyde overnight at 4° C, and dehydrated in 50% and then 100% ethanol (2 h each step) at 37° C. Samples were then gold-coated and visualized by SEM (JSM-7100F; JEOL, Tokyo, Japan).

FLRFIGSVKHGKGHLVHHIGVAL-NH2 [CSP-4]
MIC (S. aureus 1870): 8 µM | MIC (S. aureus 3126): 8 µM | MIC (S. aureus 5159): 8 µM | MIC (S. aureus 5156): 8 µM | MIC (S. aureus 5157): 8 µM | MIC (S. aureus 1630): 8 µM | MIC (S. aureus 0027): 8 µM | MIC (S. aureus 2122): 8 µM | MIC (S. aureus 3359): 8 µM | MIC (S. aureus 3518): 8 µM | MIC (S. aureus 1635): 8 µM | MIC (S. aureus 4761): 8 µM | MIC (S. aureus 3511): 8 µM | Epidermal thickness and immune cell infiltration ([1]; 200 µg/mL and 100 µg/mL, skin collected after 7 days, hematoxylin and eosin): dose-dependent decrease | TLR-2, NF-κB, TNF-α, IL-1β, and cathelicidin levels in skin ([1]; 200 μg/mL or 100 μg/mL, Western blot): concentration-dependent decreases | Dermal collagen and elastin, uninfected mice treated with peptide alone ([1]; CSP-4 alone (200 µg/mL), SEM): not damaged | Collagen and elastin damage in infected skin ([1]; SEM, 7 days after infection): dose-dependently reduced
